Usually IC50 stands for the concentration that inhibits the measured activity by half.

This note sets out measurements from patent US10233173B2, “Substituted 1,2,3-triazoles as NR2B-selective NMDA modulators” (JANSSEN PHARMACEUTICA NV, priority 2016, dated 2019).

For this test, the target named is human GluN1/GluN2B NMDA receptors (Homo sapiens, UniProt Q05586+Q13224). Description: Cell-based calcium flux (FLIPR) assay on cloned human NR1/NR2B ion channels expressed in mammalian cells. Conditions: standard assay; human GluN1/GluN2B, calcium flux (FLIPR), glutamate ~EC80. A digest of the protocol:
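Calcium influx followed by FLIPR fluorescence after 5 min compound exposure and a further 5 min co-agonist challenge: 10 μM glycine with glutamate at ~EC80 (standard) or EC40 (HTS).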
Background: A change in cytosolic calcium serves as a functional read-out for many receptors and channels.

human GluN1/GluN2B NMDA receptors, sequence (Q13224 27-1484, other chains not shown): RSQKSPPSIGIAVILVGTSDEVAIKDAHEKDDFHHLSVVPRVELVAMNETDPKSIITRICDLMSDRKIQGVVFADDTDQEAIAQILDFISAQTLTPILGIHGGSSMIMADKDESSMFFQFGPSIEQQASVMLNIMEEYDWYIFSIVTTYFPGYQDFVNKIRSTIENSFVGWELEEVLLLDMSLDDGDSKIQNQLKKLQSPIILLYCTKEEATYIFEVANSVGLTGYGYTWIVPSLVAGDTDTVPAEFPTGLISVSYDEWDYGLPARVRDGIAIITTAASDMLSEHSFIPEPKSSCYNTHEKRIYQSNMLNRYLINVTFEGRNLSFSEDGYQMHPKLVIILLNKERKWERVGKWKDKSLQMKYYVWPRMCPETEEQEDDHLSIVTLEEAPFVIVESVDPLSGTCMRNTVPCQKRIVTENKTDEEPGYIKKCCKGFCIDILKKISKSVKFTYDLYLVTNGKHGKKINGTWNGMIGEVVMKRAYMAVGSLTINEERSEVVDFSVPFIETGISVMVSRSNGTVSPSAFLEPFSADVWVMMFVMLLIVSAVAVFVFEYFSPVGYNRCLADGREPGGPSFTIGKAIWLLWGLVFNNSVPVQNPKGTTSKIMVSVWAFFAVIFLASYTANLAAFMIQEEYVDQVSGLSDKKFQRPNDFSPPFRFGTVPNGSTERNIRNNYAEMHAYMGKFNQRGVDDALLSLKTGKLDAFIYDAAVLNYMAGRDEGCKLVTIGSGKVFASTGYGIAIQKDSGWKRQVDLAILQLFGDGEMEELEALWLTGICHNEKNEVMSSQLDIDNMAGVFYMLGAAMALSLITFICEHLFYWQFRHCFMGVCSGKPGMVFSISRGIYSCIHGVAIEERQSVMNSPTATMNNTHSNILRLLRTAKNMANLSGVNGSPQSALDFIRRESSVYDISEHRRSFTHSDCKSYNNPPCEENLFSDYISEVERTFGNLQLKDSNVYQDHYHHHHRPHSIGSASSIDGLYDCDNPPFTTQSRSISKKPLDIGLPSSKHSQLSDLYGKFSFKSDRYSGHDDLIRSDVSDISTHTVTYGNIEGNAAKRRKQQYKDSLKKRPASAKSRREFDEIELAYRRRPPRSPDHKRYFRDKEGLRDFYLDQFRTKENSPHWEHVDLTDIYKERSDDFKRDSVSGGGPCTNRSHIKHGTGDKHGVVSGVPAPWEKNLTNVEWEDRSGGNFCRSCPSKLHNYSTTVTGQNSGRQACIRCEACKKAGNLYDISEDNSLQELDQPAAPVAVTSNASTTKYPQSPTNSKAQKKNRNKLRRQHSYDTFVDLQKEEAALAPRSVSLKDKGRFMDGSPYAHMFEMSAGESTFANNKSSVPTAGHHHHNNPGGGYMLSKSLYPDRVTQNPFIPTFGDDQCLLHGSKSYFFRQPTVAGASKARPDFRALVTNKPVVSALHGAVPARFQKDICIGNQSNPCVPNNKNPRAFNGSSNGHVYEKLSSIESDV

Turning to `COCc1ccnc(OCc2cn(-c3cccc(C)c3)nn2)n1` [Example 250, 4-(Methoxymethyl)-2-[[1-(m-tolyl)triazol-4-yl]methoxy]pyrimidine], the IC50 was 0.249 µM. Regarding `Cc1cccc(-n2cc(COc3ncc(C)c(C)n3)nn2)c1` [Example 251, 4,5-Dimethyl-2-[[1-(m-tolyl)triazol-4-yl]methoxy]pyrimidine], the IC50 is 0.002 µM. For the compound `Cc1cccc(-n2cc(COc3ncc(F)c(C)n3)nn2)c1` [Example 252, 5-Fluoro-4-methyl-2-[[1-(m-tolyl)triazol-4-yl]methoxy]pyrimidine], the IC50 was found to be 0.065 µM. On to `Cc1cccc(-n2cc(COc3ncc(Cl)c(C)n3)nn2)c1` [Example 253, 5-Chloro-4-methyl-2-[[1-(m-tolyl)triazol-4-yl]methoxy]pyrimidine], for which the IC50 was 0.007 µM. In the case of `Cc1cccc(-n2cc(COc3ncc(C)c(N)n3)nn2)c1` [Example 254, 5-Methyl-2-[[1-(m-tolyl)triazol-4-yl]methoxy]pyrimidin-4-amine], the half-maximal inhibitory concentration (IC50) turned out to be 0.151 µM. For the compound `CC(=O)c1cnc(OCc2cn(-c3cccc(C)c3)nn2)nc1` [Example 255, 1-[2-[[1-(m-Tolyl)triazol-4-yl]methoxy]pyrimidin-5-yl]ethanone], the IC50 was found to be 0.224 µM. With `Cc1ccc(-n2cc(COc3ncccn3)nn2)cc1` [Example 256, 2-[[1-(p-Tolyl)triazol-4-yl]methoxy]pyrimidine] the figure was 4.42 µM; with `Cc1ccc(-n2cc(COc3ncc(F)cn3)nn2)cc1` [Example 257, 5-Fluoro-2-[[1-(p-tolyl)triazol-4-yl]methoxy]pyrimidine], 2.69 µM; with `COc1cnc(OCc2cn(-c3ccc(C)cc3)nn2)nc1` [Example 258, 5-Methoxy-2-[[1-(p-tolyl)triazol-4-yl]methoxy]pyrimidine], 0.225 µM. As for `Cc1ccc(-n2cc(COc3ncc(Cl)cn3)nn2)cc1` [Example 259, 5-Chloro-2-[[1-(p-tolyl)triazol-4-yl]methoxy]pyrimidine], the half-maximal inhibitory concentration (IC50) was found to be 0.711 µM.

`Cc1ccc(-n2cc(COc3ncc(C)cn3)nn2)cc1` [Example 260, 5-Methyl-2-[[1-(p-tolyl)triazol-4-yl]methoxy]pyrimidine]: the IC50 was found to be 0.271 µM. For `CCc1cnc(OCc2cn(-c3ccc(C)cc3)nn2)nc1` [Example 261, 5-Ethyl-2-[[1-(p-tolyl)triazol-4-yl]methoxy]pyrimidine], the 50% inhibitory concentration (IC50) stood at 0.093 µM. On to `CC(C)c1cccc(-n2cc(COc3ncccn3)nn2)c1` [Example 262, 2-[[1-(3-Isopropylphenyl)triazol-4-yl]methoxy]pyrimidine], for which the concentration for half-maximal inhibition (IC50) turned out to be 0.358 µM. Then `CC(C)c1cccc(-n2cc(COc3ncc(F)cn3)nn2)c1` [Example 263, 5-Fluoro-2-[[1-(3-isopropylphenyl)triazol-4-yl]methoxy]pyrimidine], with 0.227 µM. Then `COc1cnc(OCc2cn(-c3cccc(C(C)C)c3)nn2)nc1` [Example 264, 2-[[1-(3-Isopropylphenyl)triazol-4-yl]methoxy]-5-methoxy-pyrimidine], with 0.006 µM. With `CC(C)c1cccc(-n2cc(COc3ncc(Cl)cn3)nn2)c1` [Example 265, 5-Chloro-2-[[1-(3-isopropylphenyl)triazol-4-yl]methoxy]pyrimidine], the IC50 turned out to be 0.016 µM. Then `Cc1cnc(OCc2cn(-c3cccc(C(C)C)c3)nn2)nc1` [Example 266, 2-[[1-(3-Isopropylphenyl)triazol-4-yl]methoxy]-5-methyl-pyrimidine], with 0.01 µM; and `CCc1cnc(OCc2cn(-c3cccc(C(C)C)c3)nn2)nc1` [Example 267, 5-Ethyl-2-[[1-(3-isopropylphenyl)triazol-4-yl]methoxy]pyrimidine], with 0.012 µM; and `Cc1ccnc(OCc2cn(-c3cccc(C(F)F)c3)nn2)n1` [Example 268, 2-[[1-[3-(Difluoromethyl)phenyl]triazol-4-yl]methoxy]-4-methyl-pyrimidine], with 0.134 µM. As to `Fc1cnc(OCc2cn(-c3cccc(C(F)F)c3)nn2)nc1` [Example 269, 2-[[1-[3-(Difluoromethyl)phenyl]triazol-4-yl]methoxy]-5-fluoro-pyrimidine], the half-maximal inhibitory concentration (IC50) worked out at 0.325 µM. Then `CC(C)c1ccnc(OCc2cn(-c3cccc(C(F)F)c3)nn2)n1` [Example 270], with 0.617 µM. Then `COCc1ccnc(OCc2cn(-c3cccc(C(F)F)c3)nn2)n1` [Example 271], with 0.36 µM. Regarding `CC(C)(O)c1cnc(OCc2cn(-c3cccc(C(F)F)c3)nn2)nc1` [Example 272, 2-[2-[[1-[3-(Difluoromethyl)phenyl]triazol-4-yl]methoxy]pyrimidin-5-yl]propan-2-ol], the IC50 is 0.173 µM. With `FC(F)c1cnc(OCc2cn(-c3cccc(C(F)F)c3)nn2)nc1` [Example 273, 5-(Difluoromethyl)-2-[[1-[3-(difluoromethyl)phenyl]triazol-4-yl]methoxy]pyrimidine] the figure was 0.027 µM.

With `FC(F)c1cccc(-n2cc(COc3nccc(C(F)F)n3)nn2)c1` [Example 274, 4-(Difluoromethyl)-2-[[1-[3-(difluoromethyl)phenyl]triazol-4-yl]methoxy]pyrimidine], the IC50 was 0.813 µM.

With `FC(F)c1cccc(-n2cc(COc3ncc(C(F)(F)F)cn3)nn2)c1` [Example 275, 2-[[1-[3-(Difluoromethyl)phenyl]triazol-4-yl]methoxy]-5-(trifluoromethyl)pyrimidine], the IC50 is 0.025 µM.

`FC(F)Oc1cnc(OCc2cn(-c3cccc(C(F)F)c3)nn2)nc1` [Example 276, 5-(Difluoromethoxy)-2-[[1-[3-(difluoromethyl)phenyl]triazol-4-yl]methoxy]pyrimidine]: the IC50 came to 0.031 µM.

`CN(C)c1ccnc(OCc2cn(-c3cccc(C(F)F)c3)nn2)n1` [Example 277, 2-[[1-[3-(Difluoromethyl)phenyl]triazol-4-yl]methoxy]-N,N-dimethyl-pyrimidin-4-amine]: the IC50 turned out to be 0.041 µM. On to `Cc1nc(OCc2cn(-c3cccc(C(F)F)c3)nn2)ncc1F` [Example 278, 2-[[1-[3-(Difluoromethyl)phenyl]triazol-4-yl]methoxy]-5-fluoro-4-methyl-pyrimidine], for which the 50% inhibitory concentration (IC50) was found to be 0.042 µM. With `Cc1nc(OCc2cn(-c3cccc(C(F)F)c3)nn2)ncc1Cl` [Example 279, 5-Chloro-2-[[1-[3-(difluoromethyl)phenyl]triazol-4-yl]methoxy]-4-methyl-pyrimidine] the figure was 0.003 µM; with `Cc1cnc(Cl)nc1OCc1cn(-c2cccc(C(F)F)c2)nn1` [Example 280, 2-Chloro-4-[[1-[3-(difluoromethyl)phenyl]triazol-4-yl]methoxy]-5-methyl-pyrimidine], 0.173 µM; with `Cc1cnc(OCc2cn(-c3cccc(C(F)F)c3)nn2)nc1N(C)C` [Example 281, 2-[[1-[3-(Difluoromethyl)phenyl]triazol-4-yl]methoxy]-N,N,5-trimethyl-pyrimidin-4-amine], 0.13 µM. Then `FC(F)c1cccc(-n2cc(COc3ncc(C4CC4)cn3)nn2)c1` [Example 282, 5-Cyclopropyl-2-[[1-[3-(difluoromethyl)phenyl]triazol-4-yl]methoxy]pyrimidine], with 0.011 µM; and `FC(F)c1cccc(-n2cc(COc3nccc(C4CC4)n3)nn2)c1` [Example 283, 4-Cyclopropyl-2-[[1-[3-(difluoromethyl)phenyl]triazol-4-yl]methoxy]pyrimidine], with 0.169 µM; and `FC(F)c1cccc(-n2cc(COc3nccc(N4CCCC4)n3)nn2)c1` [Example 284, 2-[[1-[3-(Difluoromethyl)phenyl]triazol-4-yl]methoxy]-4-pyrrolidin-1-yl-pyrimidine], with 0.094 µM. As for `FC(F)c1cccc(-n2cc(COc3nccc(N4CCCCC4)n3)nn2)c1` [Example 285, 2-[[1-[3-(Difluoromethyl)phenyl]triazol-4-yl]methoxy]-4-(1-piperidyl)pyrimidine], the IC50 worked out at 0.299 µM. Then `Cc1cnc(OCc2cn(-c3cccc(C(F)(F)F)c3)nn2)nc1` [Example 286, 5-Methyl-2-[[1-[3-(trifluoromethyl)phenyl]triazol-4-yl]methoxy]pyrimidine], with 0.012 µM; and `CCc1cnc(OCc2cn(-c3cccc(C(F)(F)F)c3)nn2)nc1` [Example 287, 5-Ethyl-2-[[1-[3-(trifluoromethyl)phenyl]triazol-4-yl]methoxy]pyrimidine], with 0.005 µM. On to `CC(C)c1cnc(OCc2cn(-c3cccc(C(F)(F)F)c3)nn2)nc1` [Example 288, 5-Isopropyl-2-[[1-[3-(trifluoromethyl)phenyl]triazol-4-yl]methoxy]pyrimidine], for which the IC50 was 0.04 µM. With `FC(F)c1cnc(OCc2cn(-c3cccc(C(F)(F)F)c3)nn2)nc1` [Example 289, 5-(Difluoromethyl)-2-[[1-[3-(trifluoromethyl)phenyl]triazol-4-yl]methoxy]pyrimidine] the figure was 0.037 µM. With `Cc1cnc(OCc2cn(-c3cccc(C(F)(F)F)c3)nn2)nc1C` [Example 290, 4,5-Dimethyl-2-[[1-[3-(trifluoromethyl)phenyl]triazol-4-yl]methoxy]pyrimidine] the figure was 0.007 µM.

Turning to `Cc1nc(OCc2cn(-c3cccc(C(F)(F)F)c3)nn2)ncc1Cl` [Example 291, 5-Chloro-4-methyl-2-[[1-[3-(trifluoromethyl)phenyl]triazol-4-yl]methoxy]pyrimidine], the IC50 came out at 0.009 µM. Then `CC(F)(F)c1cccc(-n2cc(COc3ncccn3)nn2)c1` [Example 292, 2-[[1-[3-(1,1-Difluoroethyl)phenyl]triazol-4-yl]methoxy]pyrimidine], with 0.105 µM.

As for `CC(F)(F)c1cccc(-n2cc(COc3ncc(Br)cn3)nn2)c1` [Example 293, 5-Bromo-2-[[1-[3-(1,1-difluoroethyl)phenyl]triazol-4-yl]methoxy]pyrimidine], the IC50 is 0.039 µM.

For the compound `CC(F)(F)c1cccc(-n2cc(COc3ncc(Cl)cn3)nn2)c1` [Example 294, 5-Chloro-2-[[1-[3-(1,1-difluoroethyl)phenyl]triazol-4-yl]methoxy]pyrimidine], the IC50 was 0.003 µM.
